What all share (test): biochemical
Assay [1] has as its target T1, S. mansoni TGR/Prx2 (Schistosoma mansoni, UniProt Q962Y6).
T1 sequence (Q962Y6 1-598): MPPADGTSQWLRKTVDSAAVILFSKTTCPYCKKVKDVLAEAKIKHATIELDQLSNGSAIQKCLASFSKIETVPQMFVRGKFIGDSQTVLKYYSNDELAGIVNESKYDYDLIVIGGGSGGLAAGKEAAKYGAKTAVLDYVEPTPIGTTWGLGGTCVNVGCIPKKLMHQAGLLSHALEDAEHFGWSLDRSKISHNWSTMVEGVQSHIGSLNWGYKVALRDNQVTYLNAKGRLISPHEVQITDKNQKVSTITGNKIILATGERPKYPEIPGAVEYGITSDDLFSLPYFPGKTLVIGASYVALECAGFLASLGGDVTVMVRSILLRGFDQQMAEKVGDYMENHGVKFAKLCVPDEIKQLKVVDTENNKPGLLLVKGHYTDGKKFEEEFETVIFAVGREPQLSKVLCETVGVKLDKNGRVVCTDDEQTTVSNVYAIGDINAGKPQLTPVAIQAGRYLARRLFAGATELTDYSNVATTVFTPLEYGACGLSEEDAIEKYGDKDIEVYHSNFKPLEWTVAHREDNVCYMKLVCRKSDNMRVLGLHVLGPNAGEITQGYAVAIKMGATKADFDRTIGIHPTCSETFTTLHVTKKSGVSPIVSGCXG
It counts as biochemical.

Another assay deals with T2, TGR (Schistosoma mansoni, UniProt Q962Y6).
T2 sequence (Q962Y6 1-598): T1 sequence (Q962Y6 1-598)

Assay [2] deals with T1, S. mansoni TGR/Prx2.
The mark [3] stands for this setting: initial high throughput screen of the collection, 25 nM TGR, 50 nM Prx2, read-out: qHTS IC50.
[4] abbreviates: DTNB as substrate, 15 nM TGR, read-out: TGR Assay IC50.

Where two headings read alike, the source gives them in different places.

For the compound `N#Cc1c(-c2ccccc2)no[n+]1[O-]` [compound 9], the IC50 against S. mansoni TGR/Prx2 [1] is 8700 nM; on TGR it was 1800 nM.

For `CCOc1ccc(OP2(=O)NC(=O)C=C(C)N2)cc1` (centres unmarked) [compound 16], the values for the IC50 against S. mansoni TGR/Prx2 [2] and against TGR were 180 nM and 600 nM, respectively.

As to `CC1COc2c(N3CCN(C)CC3)c(F)cc3c(=O)c(C(=O)O)cn1c23` (centres unmarked) [Ofloxacin, reference compound], the “activity in qHTS” value on S. mansoni TGR/Prx2 [1] (primary screen) is listed as “apparent activator”.

For the compound `Cc1nn(C)cc1C(=O)c1no[n+]([O-])c1C(=O)c1cn(C)nc1C` [compound 6], the IC50 on S. mansoni TGR/Prx2 [1] (setting [3]) was 24000 nM; on TGR (setting [4]), 2000 nM.

For `O=P(Nc1ccccc1F)(c1ccccc1)c1nc2ccccc2s1` (centres unmarked) [compound 2], the IC50 amounted to 23000 nM against S. mansoni TGR/Prx2 [2] and 12000 nM on TGR.

For the compound `COc1ccc(C(=O)c2no[n+]([O-])c2C(=O)c2ccc(OC)cc2)cc1` [compound 8], the IC50 on S. mansoni TGR/Prx2 [1] (setting [3]) is 10000 nM; at S. mansoni TGR/Prx2 [2] it was 4700 nM; at TGR (setting [4]), 60 nM.

With `O=C(c1cccs1)c1no[n+]([O-])c1C(=O)c1cccs1` [compound 7], the IC50 at S. mansoni TGR/Prx2 [1] (setting [3]) was determined as 9200 nM; against S. mansoni TGR/Prx2 [2] it was 1500 nM; at TGR (setting [4]), 20 nM.

Turning to `COC(=O)C(C(=O)OC)c1cc(Br)c2noc3c2c1C(=O)c1ccccc1-3` [compound 11], the IC50 is 120 nM at S. mansoni TGR/Prx2 [2] and 80 nM on TGR.

Consider `CC1=CC(=O)NP(=O)(Oc2ccccc2)N1` (centres unmarked) [compound 15], for which the IC50 is 2000 nM against S. mansoni TGR/Prx2 [2] and 4000 nM on TGR.

Regarding `CCOC(=O)C(C(=O)OCC)c1cc(Br)c2noc3c2c1C(=O)c1ccccc1-3` [compound 10], the IC50 at S. mansoni TGR/Prx2 [1] is 530 nM; on S. mansoni TGR/Prx2 [2], > 57000 nM; on TGR, 9000 nM.

`CCCCOc1cc(Br)c2noc3c2c1C(=O)c1ccccc1-3` [compound 12]: the IC50 on S. mansoni TGR/Prx2 [2] (read-out: Confirmation IC50) amounted to 840 nM; on TGR (setting [4]), 150 nM.

As for `CC1=CC(=O)NP(=O)(Oc2ccc(Cl)cc2)N1` (centres unmarked) [compound 13], the IC50 against S. mansoni TGR/Prx2 [2] was 420 nM; at TGR it was 550 nM.

Take `O=C(c1ccco1)c1no[n+]([O-])c1C(=O)c1ccco1` [compound 5]: the IC50 on S. mansoni TGR/Prx2 [2] came out at 1500 nM; at TGR it was 25 nM.

Regarding `O=C([O-])[C@H]([O-])[C@@H]([O-])C(=O)[O-].O=C([O-])[C@H]([O-])[C@@H]([O-])C(=O)[O-].[K+].[K+].[Sb+3].[Sb+3]` [PAT, potassium antimonyl tartrate, reference compound], the IC50 at S. mansoni TGR/Prx2 [1] (read-out: average IC50 of intraplate control titration) came to 14 ± 8 nM.

The values are drawn from article PMC2217675, “Quantitative High-Throughput Screen Identifies Inhibitors of the Schistosoma mansoni Redox Cascade” (PLoS Neglected Tropical Diseases, 2008).
